From patent publication US8492567B2, “(Poly)Aminoalkylaminoalkylamide, alkyl-urea, or alkyl-sulfonamide derivatives of epipodophyllotoxin, a process for preparing them, and application thereof in therapy as anticancer agents” (Pierre Fabre Medicament, priority 2008, dated 2013) come the findings set out here.

Counter-ions that a name gives are not always drawn.

Data set [1] relates to A549 human line (non-small cell lung cancer). The data set can be described thus: Cytotoxicity test: cell growth inhibition of the A549 human line (ATP-lite luminescence). Type of data set: cell-based. The settings on record: A549 cells, 48 hrs incubation with compound, read-out: IC50 (concentration providing a 50% inhibition of cell proliferation). The protocol:
A cytotoxicity test is used. It measures the cell growth inhibition of the A549 human line (non-small cell lung cancer):
The A549 tumor cells are plated in a 96-well plate in RPMI 1640 medium free of phenol red (Seromed) to which is added 5% of fetal calf serum (100 μl/well, 1.25×10^4 cells/ml). After incubation for 24 hrs at 37° C. in an incubator at 5% CO2, the medium is replaced by that containing the compound to be tested, followed by incubation of the plates for another 48 hrs. Cell survival is assessed by measuring the luminescence after salting-out of the ATP from the medium using the cell lysis, luciferase and luciferine solutions included in the ATP-lite-M™ kit following the manufacturer's guidelines (Packard, Rungis, France). Each experimental condition was tested at least three times in sixplicate.

In the next data set the test system is P388 murine leukemia. The data set can be described thus: Experimental P388 tumor model, survival of mice. In kind it is in vivo. As to conditions: dose of 0.16 mg/kg. The source says:
Experimental P388 tumor model. The model used is P388 murine leukemia (Tumor Models in Cancer Research. Teicher, B. A. ed., Humana Press Inc., Totowa, N.J. Pp. 23-40, 2002), which is maintained by sequential intraperitoneal transplantations in DBA/2 mice (DBA/2JIco mice, Charles River), as previously disclosed (Classic in vivo cancer models: Three examples of mouse models used in experimental therapeutics. Current Protocols in Pharmacology Unit 5.24: 5.24.1-5.24.16, 2001).
The experiment is carried out according to a previously disclosed protocol (Cancer Chemother. Pharmacol. 1998, 41, 437-447). This comprises implanting 10^6 P388 leukemia cells per mouse into C2DF1 hybrid mice (CD2F1/CrlBR, Charles River, St Aubin-les-Elbeuf, France) intravenously at day zero. After the animals have been randomized in treatment and control cages, the compounds to be tested are administered in one single injection by intraperitoneal route the day after the tumor transplantation, at day 1. The animals are then monitored every day, weighed twice per week, and any clinical reaction is recorded. The survival rate is the parameter used to assess antitumor activity. […] The T/Csurvival ratio is calculated for each dosage and the largest value obtained represents the maximum increase in survival rate achieved (maximum activity), which is defined as the optimum T/Csurvival ratio.

As for `COc1cc(C2c3cc4c(cc3[C@@H](NC(=O)CCCN)[C@H]3COC(=O)[C@H]23)OCO4)cc(OC)c1O` (stereo in doubt) (as salt: hydrochloride), the melting point – broadly, the temperature, or range, at which the solid turns liquid – was found to be 284 °C. The same measure, in the same setting: as for `COc1cc(C2c3cc4c(cc3[C@@H](NC(=O)NCCCNCCCCNCCCN)[C@H]3COC(=O)[C@H]23)OCO4)cc(OC)c1O` (stereo partly drawn) (as salt: hydrochloride) [Compound 48, 1-{3-[4-(3-Aminopropylamino)-butylamino]-propyl}-3-[9-(4-hydroxy-3,5-dimethoxyphenyl)-8-oxo-5,5a,6,8,8a,9-hexahydrofuro[3′,4′:6,7]-naphtho[2,3-d][1,3]dioxol-5-yl]-urea], the figure is 166 °C; as for `COc1cc(C2c3cc4c(cc3[C@@H](NS(=O)(=O)CCNCCCNCCCCNCCCN)[C@H]3COC(=O)[C@H]23)OCO4)cc(OC)c1O` (stereo partly drawn) (as salt: hydrochloride), 191 °C. On to `COc1cc(C2c3cc4c(cc3[C@@H](NC(=O)NCCCNCCCCNCCCN)[C@H]3COC(=O)[C@H]23)OCO4)cc(OC)c1O` (stereo partly drawn) [Compound 48, 1-{3-[4-(3-Aminopropylamino)-butylamino]-propyl}-3-[9-(4-hydroxy-3,5-dimethoxyphenyl)-8-oxo-5,5a,6,8,8a,9-hexahydrofuro[3′,4′:6,7]-naphtho[2,3-d][1,3]dioxol-5-yl]-urea], for which, in data set [1], the IC50 is 12 nM. As for `COc1cc(C2c3cc4c(cc3[C@@H](NC(=O)CCCNCCCNCCCCNCCCN)[C@H]3COC(=O)[C@H]23)OCO4)cc(OC)c1O` (stereo partly drawn) [Compound 21, 4-{3-[4-(3-Aminopropylamino)-butylamino]-propylamino}-N-[9-(4-hydroxy-3,5-dimethoxyphenyl)-8-oxo-5,5a,6,8,8a,9-hexahydrofuro[3′,4′:6,7]-naphtho[2,3-d][1,3]dioxol-5-yl]-butyramide], in data set [1], the IC50 was determined as 1.7 nM. The “optimum T/Csurvival value” in the data set on P388 murine leukemia (single intraperitoneal injection at day 1, 10^6 P388 cells intravenously at day 0, mice) worked out at 186%. Moreover, in the data set on P388 murine leukemia (single intraperitoneal injection at day 1, P388 leukemia mice), the “increase in survival rate of the animals” value was 86%. Regarding `COc1cc(C2c3cc4c(cc3[C@@H](NC(=O)CCCN(C)C)[C@H]3COC(=O)[C@H]23)OCO4)cc(OC)c1O` (stereo in doubt) (as salt: hydrochloride), the melting point was 169 °C. On the same count and under the same terms, with `COc1cc(C2c3cc4c(cc3[C@@H](NC(=O)NCCCNCCCNCCCCNCCCN)[C@H]3COC(=O)[C@H]23)OCO4)cc(OC)c1O` (stereo in doubt) the figure was 213 °C.
